Values of other authors, collected in EP0743854B1, “ANTI-TUMOUR MEDICAL P[…] THE BASIS OF C[…] THE METHOD OF ITS PRODUCTION” (PLIVA, pharmaceutical industry incorporated, priority 1994, dated 1995).

Conditions: lyophylized injection dissolved in water and other aqueous solutions (sodium chloride, glucose, dextrose)

N.N.O=C([O-])C1(C(=O)[O-])CCC1.[Pt+2] [carboplatin, cis-diammine-1,1-cyclobutanedicarboxylate platinum (II)]
stability of solution: stable and therefore therapeutically useful for only few hours, at most few days under lower temperature
